Key:
[1] = target: T1, Histamine H3 receptor (Homo sapiens, UniProt Q9Y5N1); experiment: Displacement of [3H]-Nalpha-methylhistamine from human histamine H3 receptor expressed in CHO cells by liquid scintillation counting; format: cell-based
[2] = target: T1, Histamine H3 receptor; experiment: Inverse agonist activity at human histamine H3 receptor expressed in CHO cells assessed as inhibition of [35S]-GTPgammaS binding by liquid scintillation counting; format: functional, cell-based

T1 sequence (Q9Y5N1 whole entry): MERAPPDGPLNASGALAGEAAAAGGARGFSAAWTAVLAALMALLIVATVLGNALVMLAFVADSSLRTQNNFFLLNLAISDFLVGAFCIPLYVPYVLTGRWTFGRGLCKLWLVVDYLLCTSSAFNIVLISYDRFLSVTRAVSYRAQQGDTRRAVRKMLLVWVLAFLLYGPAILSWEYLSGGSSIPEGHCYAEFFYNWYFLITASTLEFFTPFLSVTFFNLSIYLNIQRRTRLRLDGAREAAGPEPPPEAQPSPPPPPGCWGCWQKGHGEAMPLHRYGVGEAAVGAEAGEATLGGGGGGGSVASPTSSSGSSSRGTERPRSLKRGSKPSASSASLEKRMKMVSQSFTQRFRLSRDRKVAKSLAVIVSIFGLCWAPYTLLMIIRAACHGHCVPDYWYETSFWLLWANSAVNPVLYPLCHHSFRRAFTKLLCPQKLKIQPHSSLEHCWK

Compound | Ki [1] [nM] | EC50 [2] [nM]
CC1(C)COC(c2ccc(OCCCN3CCCCC3)cc2)=N1 | 158 | 15.8
CC1(C)COC(c2ccc(O[C@H]3C[C@H](N4CCCCC4)C3)cc2)=N1 | 7.94 | 0.631
c1cc(C2=NC3(CCCCC3)CO2)ccc1OCCCN1CCCCC1 | 79.4 | 7.94
c1cc(C2=NC3(CCCCC3)CO2)ccc1O[C@H]1C[C@@H](N2CCCCC2)C1 | 251 | 79.4
c1cc(-c2nc(CN3CCCCC3)co2)ccc1OCCCN1CCCCC1 | 6.31 | 1.58

These reach a lower Ki [1]. Values come first.

Ki [1] [nM] | EC50 [2] [nM] | Compound
2 | 2 | c1cc(C2=NC3(CCCCC3)CO2)ccc1O[C@H]1C[C@H](N2CCCCC2)C1
1.26 | 3.16 | c1cc(-c2nc(CN3CCCCC3)co2)ccc1O[C@H]1C[C@H](N2CCCCC2)C1
2 | 1.58 | COC(=O)c1oc(-c2ccc(O[C@H]3C[C@H](N4CCCCC4)C3)cc2)nc1C

— ChEMBL document CHEMBL3217520, “Histamine H3 receptor ligands with a 3-cyclobutoxy motif: a novel and versatile constraint of the classical 3-propoxy linker” (Medchemcomm, 2010)
